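Compound exposure: 48 hours, 5 concentrations, 96-well plates. The concentration for 50% growth inhibition is given as GI50. TGI: concentration producing complete growth inhibition.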
Tests used:
Assay in all cases: NCI tumour cell line growth inhibition, 48 h
CCRF-CEM leukemia = test system: CCRF-CEM leukemia
HCC-2998 colon = test system: HCC-2998 colon
HCT-15 colon = test system: HCT-15 colon
MDA-MB-435 = test system: MDA-MB-435
NCI-H522 lung = test system: NCI-H522 lung
OVCAR-4 ovarian = test system: OVCAR-4 ovarian
RXF 393 renal = test system: RXF 393 renal
SF-539 CNS = test system: SF-539 CNS
SNB-19 CNS = test system: SNB-19 CNS
UACC-62 melanoma = test system: UACC-62 melanoma

Structure (SMILES)	GI50 (CCRF-CEM leukemia) [µM]	TGI (CCRF-CEM leukemia) [µM]	GI50 (HCC-2998 colon) [µM]	TGI (HCC-2998 colon) [µM]	GI50 (HCT-15 colon) [µM]	TGI (HCT-15 colon) [µM]	GI50 (MDA-MB-435) [µM]	TGI (MDA-MB-435) [µM]	GI50 (NCI-H522 lung) [µM]	TGI (NCI-H522 lung) [µM]	GI50 (OVCAR-4 ovarian) [µM]	TGI (OVCAR-4 ovarian) [µM]	GI50 (RXF 393 renal) [µM]	TGI (RXF 393 renal) [µM]	GI50 (SF-539 CNS) [µM]	TGI (SF-539 CNS) [µM]	GI50 (SNB-19 CNS) [µM]	TGI (SNB-19 CNS) [µM]	GI50 (UACC-62 melanoma) [µM]	TGI (UACC-62 melanoma) [µM]
C[N+](C)(CCCCCC[N+](C)(C)CCCN1C(=O)c2cc3ccccc3cc2C1=O)CCCN1C(=O)c2cc3ccccc3cc2C1=O	> 37.5	> 37.5	> 37.5	> 37.5	> 37.5	> 37.5	> 37.5	> 37.5	> 37.5	> 37.5	> 37.5	> 37.5	> 37.5	> 37.5	> 37.5	> 37.5	> 37.5	> 37.5	> 37.5	> 37.5
NCCCn1c2c(c3ccc([N+](=O)[O-])cc3c1=O)C(=O)c1cc(-c3ccccc3)ccc1-2	0.238	0.712	0.31	1.27	0.187	0.365	1.65	3.11	0.22	0.467	0.399	1.62	1.36	2.79	1.37	2.84			1.55	3
O=C(N=Nc1c(O)[nH]c2ccccc12)c1oc2ccccc2c1CN1CCN(c2ccccc2)CC1	1.68	> 50	6.83	32	1.64	10.2	2.07	8.26	3.58	19.3	0.725	1.46	1.01	3.17	2.5	8.53	1.96	8.5	2.38	10
COc1cc2oc(-c3ccc(O)cc3O)c(CC=C(C)C)c(=O)c2c(O)c1/C=C/C(C)C		5.07		4.6		10.3		4.49		12.1		8.44		4.61		10.4		9.42		10.4
CCC(CCC(C)C1CCC2C3CC=C4CC(OC5OC(CO)C(O)C(O)C5O)CCC4(C)C3CCC12C)C(C)C (stereo not drawn)		> 100		> 100		> 100		> 100		> 100		> 100		> 100		> 100		> 100		> 100
C=C1CCC2C3(C)COC(c4c(OC)cccc4OC)OC3CCC2(C)C1C/C=C1/C(=O)OCC1O (stereo not drawn)	1.86	5.75	4.18	11.2	2.28	7.87	2.88	10.8	2.02	5.01	2.42	6.73	1.92	3.55	2.55	6.35	14.6	29.9	3.32	15
Cc1ccc(/C=C/C(=N/N=C(N)N)c2ccccc2)cc1	2.34	18.9	3.11	11.8	2.74	13.8	0.432	4.93	1.8	5.12	3.65	15.6	1.62	4.03	2.75	8.65	4.21	17.3	2.65	11.9
Clc1cc2c(nn1)Nc1ccccc1S2	> 100	> 100	> 100	> 100	> 100	> 100	> 100	> 100	> 100	> 100	> 100	> 100	> 100	> 100	> 100	> 100	> 100	> 100	> 100	> 100
Clc1nc(Cl)c2c3c(sc2n1)CCCC3	17.1	> 100	> 28.9	> 100	4.07	> 100	3.65	> 100	1.64	> 26	5.5	> 100	4.06	> 100	> 100	> 100	> 100	> 100	> 100	> 100
COC1=C(Br)C(O)C2(C=C1Br)CC(C(=O)NCCCCNC(=O)C1=NOC3(C=C(Br)C(OC)=C(Br)C3O)C1)=NO2 (stereo not drawn)		40.3		> 100		> 100		49.8		29.8		> 100		69.6		50.3		> 100		> 100
NS(=O)(=O)c1ccc(NCc2cnc3ccccc3n2)cc1		> 100		> 100		> 100		> 100		> 100		> 100		> 100		> 100		> 100		> 100
COC(=O)c1ccc2c(c1)C(=O)c1c-2n(C)c(=O)c2cc(OC)c(OC)cc12	> 50	> 50	> 50	> 50	> 50	> 50	> 50	> 50	> 50	> 50	> 50	> 50	0.123	26.1	> 50	> 50	> 50	> 50	> 50	> 50
CCCCCCCCCCCCCCCC(=O)N[C@H](/C=C/[C@H](O)CCCCCCCCCCCCC)CO	> 100	> 100	> 100	> 100	> 100	> 100	> 100	> 100	> 100	> 100	> 100	> 100	> 100	> 100	> 100	> 100	> 100	> 100	> 100	> 100
NC1CCC(Nc2nc(NCc3cc(Cl)ccc3O)c3ncn(C4CCCC4)c3n2)CC1 (stereo not drawn)	0.127	0.532	0.201	0.603	0.259	0.966	0.149	0.328	0.152	0.335	0.183	0.778	0.12	0.277	0.166	0.341	0.202	1.01	0.149	0.335

Reference: PubChem BioAssay (NCI)
